Measured values taken from patent US9340554B2, “IRAK inhibitors and uses thereof” (Nimbus Iris, Inc., priority 2011, dated 2016).

Molecular target: T1, IRAK4 (Homo sapiens, UniProt Q9NWZ3)
T1 construct: purchased CARNA Bioscience 09-145
T1 sequence (Q9NWZ3 1-460): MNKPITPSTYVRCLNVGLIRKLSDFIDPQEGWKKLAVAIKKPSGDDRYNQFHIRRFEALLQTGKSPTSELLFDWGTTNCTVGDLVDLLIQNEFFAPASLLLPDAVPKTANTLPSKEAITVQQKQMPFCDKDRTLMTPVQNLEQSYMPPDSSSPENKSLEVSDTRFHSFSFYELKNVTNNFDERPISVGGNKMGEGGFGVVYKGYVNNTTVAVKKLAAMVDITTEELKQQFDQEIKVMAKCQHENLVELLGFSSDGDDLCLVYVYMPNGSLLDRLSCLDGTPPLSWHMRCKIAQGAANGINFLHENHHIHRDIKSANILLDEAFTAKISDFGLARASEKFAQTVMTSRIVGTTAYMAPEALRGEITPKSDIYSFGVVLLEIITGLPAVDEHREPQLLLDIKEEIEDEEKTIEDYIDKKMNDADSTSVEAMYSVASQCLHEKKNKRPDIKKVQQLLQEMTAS
Experiment: IRAK-4 activity inhibition assay (Caliper, Peptide 8, 37 μM ATP)
Assay type: biochemical
Settings: 3.5 nM IRAK4, 1.5 μM Peptide 8, 37 μM ATP, 28° C. 40 minutes; read-out: IRAK-4 activity inhibition IC50
Method: A 1× kinase base buffer was prepared from 50 mM HEPES, pH 7.5 and 0.0015% Brij-35. A stop buffer was prepared from 100 mM HEPES, pH 7.5, 0.015% Brij-35, 0.2% Coating Reagent #3, and 50 mM EDTA.
Test compound was diluted to 50× of the final desired highest inhibitor concentration in reaction by 100% DMSO. 100 ul of this compound dilution was transferred to a well in a 96-well plate.
Test compound was serially diluted by transferring 30 μl to 60 μl of 100% DMSO in the next well and so forth for a total of 10 concentrations. 100 μl of 100% DMSO was added to two empty wells for no compound control and no enzyme control in the same 96-well plate.
A new 96-well plate was marked as intermediate plate. 5 μl of compound serial dilution was transferred from source plate to the corresponding wells of the intermediate plate. 45 μl of 1× kinase base buffer (KB buffer) was added to each well of the intermediate plate. The intermediate plate was placed for 10 min on a shaker.
5 μl of each well was transferred from the 96-well intermediate plate to a 384-well plate in duplicates. […] A2 of the 96-well plate is transferred to A3 and A4 of the 384-well plate, and so on.
IRAK4 and DTT in 1× kinase base buffer was added.
Assay plate already contained 5 μl of compound in 10% DMSO. Added 10 μl of 2.5× enzyme solution to each well of the 384-well assay plate, except no enzyme control wells. […] Added 10 μl of 1× kinase base buffer to no enzyme control wells in the assay plate. Incubated at room temperature for 10 min.
Added 10 μl of 2.5× peptide solution to each well of the 384-well assay plate. […] Incubated at 28° C. for 40 minutes. Added 25 μl of stop buffer to stop reaction. Collected data on Caliper.
Copied conversion % data from Caliper program. Converted conversion % values to percent inhibition values. Percent inhibition=(max−conversion %)/(max−min)*100, where “max” means the conversion % of DMSO control and “min” means the conversion % of no enzyme control.
The compound numbers correspond to the compound numbers in Table 1. […] “NA” stands for “not assayed.”

In the case of `C[C@@H]1CCc2sc3ncnc(N[C@H]4CC[C@H](N)CC4)c3c2C1` [Compound I-48, trans-N^1-((R)-6-methyl-5,6,7,8-tetrahydrobenzo[4,5]thieno[2,3-d]pyrimidin-4-yl)cyclohexane-1,4-diamine], the IC50 is reported as under 5 µM.

`N[C@H]1CC[C@H](Nc2ncnc3sc4c(c23)CCCC4)CC1` [Compound I-49, trans-N^1-(5,6,7,8-tetrahydrobenzo[4,5]thieno[2,3-d]pyrimidin-4-yl)cyclohexane-1,4-diamine] gave an IC50 of under 5 µM.

`CN(C)[C@H]1CC[C@H](Nc2ncnc3sc4c(c23)CCCC4)CC1` [Compound I-50, trans-N^1,N^1-dimethyl-N^4-(5,6,7,8-tetrahydrobenzo[4,5]thieno[2,3-d]pyrimidin-4-yl)cyclohexane-1,4-diamine] was tested, and the IC50 was under 5 µM.

For `CC1CCc2sc3ncnc(N[C@H]4CC[C@H](N)CC4)c3c2C1` (stereo partly drawn) [Compound I-51, trans-N^1-(6-methyl-5,6,7,8-tetrahydrobenzo[4,5]thieno[2,3-d]pyrimidin-4-yl)cyclohexane-1,4-diamine], the IC50 was under 5 µM.

`CN[C@H]1CC[C@H](Nc2ncnc3sc4c(c23)CC(C)CC4)CC1` (stereo partly drawn) [Compound I-52, trans-N^1-methyl-N4-(6-methyl-5,6,7,8-tetrahydrobenzo[4,5]thieno[2,3-d]pyrimidin-4-yl)cyclohexane-1,4-diamine] showed an IC50 of under 5 µM.

Work on `CN[C@H]1CC[C@H](Nc2ncnc3sc4c(c23)CCCC4)CC1` [Compound I-53, trans-N^1-methyl-N4-(5,6,7,8-tetrahydrobenzo[4,5]thieno[2,3-d]pyrimidin-4-yl)cyclohexane-1,4-diamine] yielded an IC50 of under 5 µM.

For `CC1CCc2sc3ncnc(N[C@H]4CC[C@H](N(C)C)CC4)c3c2C1` (stereo partly drawn) [Compound I-54, trans-N^1,N^1-dimethyl-N^4-(6-methyl-5,6,7,8-tetrahydrobenzo[4,5]thieno[2,3-d]pyrimidin-4-yl)cyclohexane-1,4-diamine], the IC50 was under 5 µM.

Compound `CCC1CCc2c(sc3ncnc(N[C@H]4CC[C@H](N(C)C)CC4)c23)C1` (stereo partly drawn) [Compound I-55, trans-N^1-(7-ethyl-5,6,7,8-tetrahydrobenzo[4,5]thieno[2,3-d]pyrimidin-4-yl)-N^4,N^4-dimethylcyclohexane-1,4-diamine] has an IC50 of under 5 µM.

Work on `C[C@@H]1CCc2sc3ncnc(N[C@H]4CC[C@H](N(C)C)CC4)c3c2C1` [Compound I-56, trans-N^1,N^1-dimethyl-N^4-((R)-6-methyl-5,6,7,8-tetrahydrobenzo[4,5]thieno[2,3-d]pyrimidin-4-yl)cyclohexane-1,4-diamine] yielded an IC50 of under 5 µM.

`Cc1sc2ncnc(N[C@H]3CC[C@H](N)CC3)c2c1C` [Compound I-57, trans-N^1-(5,6-dimethylthieno[2,3-d]pyrimidin-4-yl)cyclohexane-1,4-diamine] gave an IC50 of under 5 µM.

`CCC1CCc2c(sc3ncnc(N[C@H]4CC[C@H](NC)CC4)c23)C1` (stereo partly drawn) [Compound I-58, trans-N1-(7-ethyl-5,6,7,8-tetrahydrobenzo[4,5]thieno[2,3-d]pyrimidin-4-yl)-N4-methylcyclohexane-1,4-diamine] was tested, and the IC50 was under 5 µM.

`c1nc(NCC2CCNCC2)c2c3c(sc2n1)CCC3` [Compound I-59] was tested, and the IC50 was 20 to 50 µM.

`c1nc(OCC2CCNCC2)c2c3c(sc2n1)CCC3` [Compound I-60] was tested, and the IC50 was 5 to 20 µM.

With `N[C@H]1CC[C@H](Oc2ncnc3sc4c(c23)CCC4)CC1` [Compound I-61, trans-4-((6,7-dihydro-5H-cyclopenta[4,5]thieno[2,3-d]pyrimidin-4-yl)oxy)cyclohexanamine] the IC50 was under 5 µM.

Compound `CNCC1CCN(c2ncnc3sc4c(c23)CCC4)CC1` [Compound I-62] has an IC50 of 5 to 20 µM.

`NCC1CCN(c2ncnc3sc4c(c23)CCC4)CC1` [Compound I-63] showed an IC50 of 5 to 20 µM.

`CN1CCC(COc2ncnc3sc4c(c23)CCC4)CC1` [Compound I-64] showed an IC50 of 20 to 50 µM.

In the case of `O=C(O)CN[C@H]1CC[C@H](Nc2ncnc3sc4c(c23)CCC4)CC1` [Compound I-65, 2-((trans-4-((6,7-dihydro-5H-cyclopenta[4,5]thieno[2,3-d]pyrimidin-4-yl)amino)cyclohexyl)amino)acetic acid], the IC50 is reported as 5 to 20 µM.

`CN[C@H]1CC[C@H](Oc2ncnc3sc4c(c23)CCC4)CC1` [Compound I-66, trans-4-((6,7-dihydro-5H-cyclopenta[4,5]thieno[2,3-d]pyrimidin-4-yl)oxy)-N-methylcyclohexanamine] gave an IC50 of under 5 µM.

Compound `CN(C)[C@H]1CC[C@H](Oc2ncnc3sc4c(c23)CCC4)CC1` [Compound I-67, trans-4-((6,7-dihydro-5H-cyclopenta[4,5]thieno[2,3-d]pyrimidin-4-yl)oxy)-N,N-dimethylcyclohexanamine] has an IC50 of under 5 µM.

Work on `O=C(O)CN[C@H]1CC[C@H](Oc2ncnc3sc4c(c23)CCC4)CC1` [Compound I-68, 2-((trans-4-((6,7-dihydro-5H-cyclopenta[4,5]thieno[2,3-d]pyrimidin-4-yl)oxy)cyclohexyl)amino)acetic acid] yielded an IC50 of 5 to 20 µM.

`CN(C)CC1CCN(c2ncnc3sc4c(c23)CCC4)CC1` [Compound I-69] was tested, and the IC50 was over 50 µM.

For `CCN[C@H]1CC[C@H](Nc2ncnc3sc4c(c23)CCC4)CC1` [Compound I-70], the IC50 was under 5 µM.

Compound `CCN[C@H]1CC[C@H](Nc2ncnc3sc4c(c23)CCC4)CC1` [Compound I-71, trans-N^1-(6,7-dihydro-5H-cyclopenta[4,5]thieno[2,3-d]pyrimidin-4-yl)-N^4-ethylcyclohexane-1,4-diamine] has an IC50 of under 5 µM.

`CCN(CC)[C@H]1CC[C@H](Nc2ncnc3sc4c(c23)CCC4)CC1` [Compound I-72, trans-N^1-(6,7-dihydro-5H-cyclopenta[4,5]thieno[2,3-d]pyrimidin-4-yl)-N^4,N^4-diethylcyclohexane-1,4-diamine] was tested, and the IC50 was under 5 µM.

Compound `CN(Cc1c(F)cccc1Cl)[C@H]1CC[C@H](Nc2ncnc3sc4c(c23)CCC4)CC1` [Compound I-99, 1-N-[(2-chloro-6-fluorophenyl)methyl]-1-N-methyl-4-N-[7-thia-9,11-diazatricyclo[6.4.0.0^[2,6]]dodeca-1(8),2(6),9,11-tetraen-12-yl]cyclohexane-1,4-diamine] has an IC50 of under 5 µM.

For `CN(Cc1ccncc1Cl)[C@H]1CC[C@H](Nc2ncnc3sc4c(c23)CCC4)CC1` [Compound I-100, 1-N-[(3-chloropyridin-4-yl)methyl]-1-N-methyl-4-N-[7-thia-9,11-diazatricyclo[6.4.0.0^[2,6]]dodeca-1(8),2(6),9,11-tetraen-12-yl]cyclohexane-1,4-diamine], the IC50 was under 5 µM.

With `CN(Cc1ccco1)[C@H]1CC[C@H](Nc2ncnc3sc4c(c23)CCC4)CC1` [Compound I-101, 1-N-(furan-2-ylmethyl)-1-N-methyl-4-N-[7-thia-9,11-diazatricyclo[6.4.0.0^[2,6]]dodeca-1(8),2(6),9,11-tetraen-12-yl]cyclohexane-1,4-diamine] the IC50 was under 5 µM.

For `CN(C(=O)Cc1cccc(Cl)c1)[C@H]1CC[C@H](Nc2ncnc3sc4c(c23)CCC4)CC1` [Compound I-102, 2-(3-chlorophenyl)-N-methyl-N-[4-([7-thia-9,11-diazatricyclo[6.4.0.0^[2,6]]dodeca-1(8),2(6),9,11-tetraen-12-yl]amino)cyclohexyl]acetamide], the IC50 was 20 to 50 µM.

`CN(C(=O)Cc1ccccn1)[C@H]1CC[C@H](Nc2ncnc3sc4c(c23)CCC4)CC1` [Compound I-103, N-methyl-2-(pyridin-2-yl)-N-[4-([7-thia-9,11-diazatricyclo[6.4.0.0^[2,6]]dodeca-1(8),2(6),9,11-tetraen-12-yl]amino)cyclohexyl]acetamide] was tested, and the IC50 was 20 to 50 µM.
